Measurements as given in article PMC6934184, “Selective DNA-PKcs inhibition extends the therapeutic index of localized radiotherapy and chemotherapy” (The Journal of Clinical Investigation, 2019).

Biological target: T1, TAOK3 (JIK) (Homo sapiens, UniProt Q9H2K8)
T1 construct: purchased Thermo Fisher Scientific (Life Technologies) SelectScreen
Assay: SelectScreen LanthaScreen
Type: binding
Conditions: read-out: % displacement
Outline: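 NU5455 was profiled across the SelectScreen Broad panel of kinase activity and binding assays. Z'LYTE reactions such as CSF1R ran at apparent Km ATP, while the Adapta CAMK1 assay used ATP listed as 10. Values are given as percent.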

T1 sequence (Q9H2K8 whole entry): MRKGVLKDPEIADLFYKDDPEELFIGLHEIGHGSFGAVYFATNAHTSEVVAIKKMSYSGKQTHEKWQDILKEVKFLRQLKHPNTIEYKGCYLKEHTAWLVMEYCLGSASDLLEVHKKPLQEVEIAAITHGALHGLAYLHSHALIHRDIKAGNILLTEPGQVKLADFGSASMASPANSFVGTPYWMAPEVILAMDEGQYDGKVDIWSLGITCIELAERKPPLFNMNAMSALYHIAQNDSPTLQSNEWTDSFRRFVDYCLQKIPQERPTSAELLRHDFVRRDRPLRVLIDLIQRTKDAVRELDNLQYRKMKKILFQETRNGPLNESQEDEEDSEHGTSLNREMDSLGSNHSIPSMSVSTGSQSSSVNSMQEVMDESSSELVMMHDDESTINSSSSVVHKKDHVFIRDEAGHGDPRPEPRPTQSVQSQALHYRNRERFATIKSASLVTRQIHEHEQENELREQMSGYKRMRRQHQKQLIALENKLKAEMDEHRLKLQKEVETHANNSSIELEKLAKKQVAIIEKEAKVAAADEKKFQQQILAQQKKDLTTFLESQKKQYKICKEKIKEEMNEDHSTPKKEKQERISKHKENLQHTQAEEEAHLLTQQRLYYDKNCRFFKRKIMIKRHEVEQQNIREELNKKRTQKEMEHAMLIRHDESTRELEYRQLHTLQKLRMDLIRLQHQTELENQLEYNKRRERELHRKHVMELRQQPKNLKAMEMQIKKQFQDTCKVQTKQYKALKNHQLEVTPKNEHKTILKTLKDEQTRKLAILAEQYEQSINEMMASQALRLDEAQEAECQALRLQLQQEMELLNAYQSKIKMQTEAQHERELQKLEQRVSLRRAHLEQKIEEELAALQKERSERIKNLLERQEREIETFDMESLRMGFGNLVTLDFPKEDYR

SMILES: CN(C(=O)CN1CCOCC1)c1ccc2sc3c(-c4cccc5c(=O)cc(N6CC7CCC(C6)O7)oc45)cccc3c2c1 [NU5455]
- inhibition at 1 µM: 4.2%
